Measurements as given in US20230277630A1, “METHODS AND COMPOSITIONS FOR TREATING AMYOTROPHIC LATERAL SCLEROSIS” (Amylyx Pharmaceuticals, Inc., priority 2022, published 2023).
pIC50: −log10 of the molar value. Where a name gives a salt, the structure may show the parent alone.

What was measured:
human hepatocytes = details: 72 h, 100 µM
Experimental: Plateable and inducible cryopreserved human hepatocytes were thawed and isolated in human hepatocyte thawing medium. […] After attachment (4 hours), the medium was changed to fresh hepatocyte culture medium for overnight cell recovery. […] A positive control (100 μM chlorpromazine) was treated in parallel. […] The absorbance of formazan, which is proportional to the number of viable cells, was measured spectrophotometrically using the CellTiter 96® AQueous One Solution Cell Proliferation Assay (MTS).

hrCYP3A4 = hrCYP3A4 (Homo sapiens, UniProt P08684); experiment: Formation of CYP probe metabolites in hrCYPs; format: in vitro ADME; details: Formation rate(hrCYP)/Formation rate(Negative Control)
[1] = CYP reaction phenotyping: CYP control (negative control without CYP enzymes); details: pH 7.4
Experimental: The reaction was initiated by the addition of NADPH, followed by incubation at 37° C.

CYP2C8 = molecular target: T1, CYP2C8 (Homo sapiens, UniProt P10632); experiment: Inhibition of CYP2C8 activity in human liver microsomes; format: in vitro ADME; design: co-incubated with pooled HLM (0.25 mg protein/mL); from tissue; host or cells: pooled human liver microsomes
T1 sequence (P10632 1-490): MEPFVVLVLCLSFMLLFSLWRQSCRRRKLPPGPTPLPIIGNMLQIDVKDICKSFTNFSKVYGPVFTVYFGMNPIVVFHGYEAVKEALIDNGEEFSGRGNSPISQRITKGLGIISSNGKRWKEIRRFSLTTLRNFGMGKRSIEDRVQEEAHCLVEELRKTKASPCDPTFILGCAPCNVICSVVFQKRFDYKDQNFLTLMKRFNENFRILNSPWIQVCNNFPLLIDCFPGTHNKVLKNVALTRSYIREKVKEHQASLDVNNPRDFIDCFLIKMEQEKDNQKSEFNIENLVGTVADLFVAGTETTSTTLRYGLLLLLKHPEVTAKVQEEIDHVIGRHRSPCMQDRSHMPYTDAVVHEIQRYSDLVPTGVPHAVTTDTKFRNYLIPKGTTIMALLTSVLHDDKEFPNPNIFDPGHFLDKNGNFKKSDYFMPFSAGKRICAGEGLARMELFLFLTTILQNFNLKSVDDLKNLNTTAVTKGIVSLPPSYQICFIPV
Experimental: […]. […] Negative (vehicle) controls were conducted without TA.

OATP1B3 = molecular target: T2, OATP1B3 (Homo sapiens, UniProt Q9NPD5); experiment: OATP1B3 inhibitor (IC50) assessment, atorvastatin uptake in transfected HEK cells
T2 sequence (Q9NPD5 1-702): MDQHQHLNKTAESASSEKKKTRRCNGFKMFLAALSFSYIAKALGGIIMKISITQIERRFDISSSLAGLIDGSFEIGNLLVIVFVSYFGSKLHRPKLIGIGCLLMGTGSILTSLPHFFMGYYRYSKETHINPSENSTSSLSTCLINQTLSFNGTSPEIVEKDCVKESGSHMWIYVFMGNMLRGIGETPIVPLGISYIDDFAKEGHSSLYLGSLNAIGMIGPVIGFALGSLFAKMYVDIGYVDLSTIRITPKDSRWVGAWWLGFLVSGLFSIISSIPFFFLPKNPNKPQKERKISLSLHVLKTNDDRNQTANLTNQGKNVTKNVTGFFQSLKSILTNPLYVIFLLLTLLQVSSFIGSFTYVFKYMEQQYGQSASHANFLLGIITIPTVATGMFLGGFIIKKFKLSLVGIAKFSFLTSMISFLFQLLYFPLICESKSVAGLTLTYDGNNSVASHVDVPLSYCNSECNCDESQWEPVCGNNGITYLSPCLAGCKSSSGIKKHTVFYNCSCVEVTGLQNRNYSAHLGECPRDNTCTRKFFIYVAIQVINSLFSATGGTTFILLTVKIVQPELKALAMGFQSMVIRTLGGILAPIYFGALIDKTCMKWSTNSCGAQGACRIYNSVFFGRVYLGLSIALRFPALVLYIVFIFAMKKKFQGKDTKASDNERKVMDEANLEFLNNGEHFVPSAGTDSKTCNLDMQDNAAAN

OATP1B1 = molecular target: T3, OATP1B1 (Homo sapiens, UniProt Q9Y6L6); experiment: OATP1B1 inhibitor (IC50) assessment, atorvastatin uptake in transfected HEK cells
T3 sequence (Q9Y6L6 1-691): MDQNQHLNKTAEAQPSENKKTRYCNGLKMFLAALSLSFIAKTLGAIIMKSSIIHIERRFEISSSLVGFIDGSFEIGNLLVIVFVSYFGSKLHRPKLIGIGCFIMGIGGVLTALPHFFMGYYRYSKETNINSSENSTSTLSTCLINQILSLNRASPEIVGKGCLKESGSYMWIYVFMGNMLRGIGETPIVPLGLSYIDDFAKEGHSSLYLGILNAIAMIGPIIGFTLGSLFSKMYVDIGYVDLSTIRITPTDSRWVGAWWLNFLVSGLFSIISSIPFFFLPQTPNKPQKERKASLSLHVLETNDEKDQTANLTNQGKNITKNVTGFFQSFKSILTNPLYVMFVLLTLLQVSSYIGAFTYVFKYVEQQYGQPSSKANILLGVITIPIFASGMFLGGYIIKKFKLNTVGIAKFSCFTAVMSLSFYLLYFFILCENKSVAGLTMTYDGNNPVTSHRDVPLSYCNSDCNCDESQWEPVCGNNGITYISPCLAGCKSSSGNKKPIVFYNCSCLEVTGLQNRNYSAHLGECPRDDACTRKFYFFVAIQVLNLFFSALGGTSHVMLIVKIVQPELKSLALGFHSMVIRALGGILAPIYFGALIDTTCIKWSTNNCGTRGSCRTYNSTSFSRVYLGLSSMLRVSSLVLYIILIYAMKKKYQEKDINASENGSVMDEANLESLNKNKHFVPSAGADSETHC

CYP2C9 = CYP2C9 (Homo sapiens, UniProt P11712); experiment: Inhibition of CYP2C9 activity in human liver microsomes
Experimental: CYP enzyme activity was determined by measuring the formation of each CYP probe metabolite by LC-MS/MS.
The total organic solvent content in the final incubation was less than 1% (DMSO ≤0.1%, other organic solvent ≤1%). […] The reaction was initiated by the addition of NADPH, followed by incubation at 37° C. for 10-30 minutes depending on the individual CYP isoform. The reaction was terminated by the addition of two volumes of ice-cold acetonitrile (ACN) containing an internal standard (IS, stable isotope-labeled CYP probe metabolite). Negative (vehicle) controls were conducted without TA. Positive controls were performed in parallel using known CYP inhibitors. […] The formation of individual CYP probe metabolites was determined by LC-MS/MS.
The enzyme activity was expressed as the peak area ratio of probe metabolite to IS, measured by LC-MS/MS.

[2] = design: species or system male Sprague Dawley rats; details: male, Sprague Dawley, rat, in vivo, po
Experimental: Total urine recovery data for Tenofovir, TDF, and PB was calculated for the 24 hour collection period on Days 1 and 5. […] The reported urine recovery data included amount recovered (ng) and percent recovered (%) for […]. Individual and mean Tenofovir, TDF, and PB urine recovery data were presented with SD, reported to three significant figures, and CV %, reported to one decimal place.

[3] = rat, in vivo
CYP2B6 [4] = molecular target: T4, CYP2B6 (Homo sapiens, UniProt P20813); experiment: Inhibition of CYP2B6 activity in human liver microsomes; format: in vitro ADME; design: co-incubated with pooled HLM (0.25 mg protein/mL); from tissue; host or cells: pooled human liver microsomes
T4 sequence (P20813 1-491): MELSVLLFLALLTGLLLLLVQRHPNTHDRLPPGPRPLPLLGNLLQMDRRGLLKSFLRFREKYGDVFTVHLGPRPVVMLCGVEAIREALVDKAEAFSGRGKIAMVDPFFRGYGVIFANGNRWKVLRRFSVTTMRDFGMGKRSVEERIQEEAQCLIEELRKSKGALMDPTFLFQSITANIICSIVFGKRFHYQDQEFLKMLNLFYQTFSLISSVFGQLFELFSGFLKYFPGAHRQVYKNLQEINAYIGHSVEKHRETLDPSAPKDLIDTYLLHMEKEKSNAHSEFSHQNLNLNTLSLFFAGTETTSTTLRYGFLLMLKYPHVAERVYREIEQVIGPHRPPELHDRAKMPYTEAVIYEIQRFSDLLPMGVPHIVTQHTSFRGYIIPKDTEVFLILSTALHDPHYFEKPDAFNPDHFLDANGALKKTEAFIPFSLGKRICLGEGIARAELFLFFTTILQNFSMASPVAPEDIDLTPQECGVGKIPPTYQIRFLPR

CYP2B6 [5] = molecular target: T4, CYP2B6; experiment: Time-dependent inhibition (TDI) of CYP in HLM, 30 min pre-incubation ±NADPH; details: microsomes, pH 7.4, % of Control Enzyme Activity
Experimental: CYP TDI was evaluated by a 30-minute pre-incubation of the TA with HLM in the presence and absence of NADPH followed by the CYP enzyme activity assay. […] The total organic solvent content in the final incubation was less than 1% (DMSO ≤0.1%, other organic solvent ≤1%). The CYP reactions were initiated by adding an individual CYP probe substrate with (when NADPH was not added in the pre-incubation step) or without (when NADPH was added in the pre-incubation step) the addition of NADPH (1 mM). The reaction mixture was incubated at 37° C. for 10-30 minutes depending on the individual CYP isoform (Table 24). The reaction was terminated with ice-cold acetonitrile (ACN) containing an internal standard (IS, stable isotope-labeled CYP probe metabolite). Negative (vehicle) controls were conducted using the incubation mixture without the TA. Positive controls were performed in parallel using known CYP time-dependent inhibitors. […] The formation of individual CYP probe metabolites was determined by LC-MS/MS.
The enzyme activity was expressed as the peak area ratio of CYP probe metabolite to IS, measured by LC-MS/MS.

CYP2C9, sequence (P11712 whole entry): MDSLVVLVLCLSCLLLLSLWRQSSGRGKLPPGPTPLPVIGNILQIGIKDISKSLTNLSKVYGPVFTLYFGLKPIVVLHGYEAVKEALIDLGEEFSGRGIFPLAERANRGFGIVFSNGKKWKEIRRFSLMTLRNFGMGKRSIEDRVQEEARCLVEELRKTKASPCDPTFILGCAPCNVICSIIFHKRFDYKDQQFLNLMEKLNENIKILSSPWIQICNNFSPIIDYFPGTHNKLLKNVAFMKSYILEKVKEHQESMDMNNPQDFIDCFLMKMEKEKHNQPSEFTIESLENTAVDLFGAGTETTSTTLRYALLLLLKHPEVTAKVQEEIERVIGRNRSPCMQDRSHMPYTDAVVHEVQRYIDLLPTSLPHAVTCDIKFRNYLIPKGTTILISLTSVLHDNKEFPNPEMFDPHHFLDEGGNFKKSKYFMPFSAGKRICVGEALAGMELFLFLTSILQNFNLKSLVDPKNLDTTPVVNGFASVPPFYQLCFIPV
hrCYP3A4, sequence (P08684 whole entry): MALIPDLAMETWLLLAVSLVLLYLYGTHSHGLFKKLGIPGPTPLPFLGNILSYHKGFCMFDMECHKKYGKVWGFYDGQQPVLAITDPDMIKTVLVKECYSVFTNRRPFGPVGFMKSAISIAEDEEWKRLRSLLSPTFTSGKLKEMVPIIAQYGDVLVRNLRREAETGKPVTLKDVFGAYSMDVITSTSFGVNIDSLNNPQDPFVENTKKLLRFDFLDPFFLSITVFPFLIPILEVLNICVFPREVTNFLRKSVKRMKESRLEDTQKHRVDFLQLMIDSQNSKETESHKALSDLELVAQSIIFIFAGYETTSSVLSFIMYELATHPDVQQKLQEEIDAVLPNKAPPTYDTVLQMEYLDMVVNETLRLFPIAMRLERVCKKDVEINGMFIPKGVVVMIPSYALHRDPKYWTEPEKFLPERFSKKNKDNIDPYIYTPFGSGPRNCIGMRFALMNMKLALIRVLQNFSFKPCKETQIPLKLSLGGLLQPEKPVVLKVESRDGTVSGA

## CN(C)CCCN1c2ccccc2Sc2ccc(Cl)cc21 [Chlorpromazine, chlorpromazine]
Human hepatocytes
  % MTS Absorbance Relative to Vehicle Control: 24.3%
  Formazan Absorbance (n = 3) Mean: 0.160

## Cc1ncc2n1-c1ccc(Cl)cc1C(c1ccccc1F)=NC2 [Midazolam, reference compound]
hrCYP3A4
  Formation Rate Ratio: >>2
[1]
  Formation Rate: 0 pmol metabolite/min/mg Supersome protein
  Measured Metabolite: 0 µM

## CC(C)(O)c1ccccc1CC[C@@H](SCC1(CC(=O)O)CC1)c1cccc(/C=C/c2ccc3ccc(Cl)cc3n2)c1 [Montelukast]
CYP2C8; human, microsomes, pH 7.4
  activity at 3.33 μM: 14.6%
  activity at 10 μM: 5.31%
CYP2C8; positive inhibitor, HLM
  pIC50: 6.29

## CO[C@H]1/C=C/O[C@@]2(C)Oc3c(C)c([O-])c4c(O)c(cc(O)c4c3C2=O)NC(=O)/C(C)=C\C=C\[C@H](C)[C@H](O)[C@@H](C)[C@@H](O)[C@@H](C)[C@H](OC(C)=O)[C@@H]1C.[Na+] [RSV, rifamycin SV]
OATP1B3; […] Atorvastatin + 10 μM RSV
  Net Influx Rate of Atorvastatin (OATP1B3): 0.0551 pmol/mgprotein/minute
  Percentage Inhibition of OATP1B3: 98.1%
OATP1B3; known inhibitor
  inhibition of atorvastatin uptake in OATP1B3-transfected cells: 98.1%
OATP1B1; […] Atorvastatin + 10 μM RSV
  Net Influx Rate of Atorvastatin (OATP1B1): 0.184 pmol/mg protein/minute
  Percentage Inhibition of OATP1B1: 96.7%
OATP1B1; known inhibitor
  inhibition of atorvastatin uptake in OATP1B1-transfected cells: 96.7%

## Nc1ccc(S(=O)(=O)Nc2ccnn2-c2ccccc2)cc1 [Sulfaphenazole]
CYP2C9; Sulfaphenazole 3.33 μM
  % of Control Enzyme Activity (n = 3) Average: 23.8%
CYP2C9; Sulfaphenazole 10.0 μM
  % of Control Enzyme Activity (n = 3) Average: 14.9%

## CC(C)OC(=O)OCOP(=O)(CO[C@H](C)Cn1cnc2c(N)ncnc21)OCOC(=O)OC(C)C [TDF, Tenofovir Disoproxil Fumarate]
[2]
  Urine concentrations: Urine concentrations for PB analysis in all animals on Day 1, for TUDCA analysis in all animals on Days 1 and 5, and for TDF analysis in two animals on Day 1 and one animal on Day 5 were BLQ (<20 ng/mL) so no recovery data was calculated.

## C[C@H](Cn1cnc2c(N)ncnc21)OCP(=O)(O)O [Tenofovir]
[3]
  individual Tmax: 15 min

## C[C@]12CC[C@H]3[C@@H](CCC4=CC(=O)CC[C@@]43C)[C@@H]1CC[C@@H]2O [Testosterone, reference compound]
hrCYP3A4
  Formation Rate Ratio: >>2
[1]
  Formation Rate: 0 pmol metabolite/min/mg Supersome protein
  Measured Metabolite: 0 µM

## S=P(N1CC1)(N1CC1)N1CC1 [Thio-TEPA]
CYP2B6 [4]; Thio-TEPA 3.33 μM
  % of Control Enzyme Activity (n = 3) Average: 66.9%
CYP2B6 [4]; Thio-TEPA 10.0 μM
  % of Control Enzyme Activity (n = 3) Average: 44.1%
CYP2B6 [4]; Thio-TEPA 30.0 μM
  % of Control Enzyme Activity (n = 3) Average: 26.7%
CYP2B6 [5]; +NADPH 30 min, 3.33 μM
  activity at 30 min, 3.33 µM: 35.5%
CYP2B6 [5]; +NADPH 30 min
  activity at 30 min, 10 µM: 18.3%
  activity at 30 min, 30 µM: 11.6%
CYP2B6 [5]; −NADPH 30 min
  activity at 30 min, 10 µM: 76.7%
  activity at 30 min, 30 µM: 54.8%
